The record followed here is a melting point compilation (Tetko et al.).

Each structure is given as a SMILES string.

The term melting point denotes the temperature, or range, at which the solid turns liquid. The molecule `Cc1cc(Oc2ncccn2)ccc1N` had a melting point of 132 to 134 °C.
The result for `Nc1cc(-c2ccco2)nn1-c1cccc([N+](=O)[O-])c1` reads 185 to 187 °C; that for `NNC1=NC(=O)C(=O)N1`, 144 to 146 °C.
Molecule `CC(C(=O)O)c1ccc(N(C)C)cc1` (stereo unspecified) showed a melting point of 128 to 130 °C.
Molecule `CN(CCO)CC(=O)O` came in with a melting point of 136 to 138 °C.
Regarding `O=C(O)c1cccnc1SCC1CCCCC1`, the melting point lay within 145 to 147 °C.
As to `Cc1ccc2c(c1C)OCCCC2=O`, the melting point was in the range of 50 to 52 °C.
With `O=C(O)CN1Cc2ccccc2C1`, the melting point fell in the range of 209 to 211 °C.
In turn, `COc1cccc(C(C)=CC(=O)O)c1` registered a melting point of 102 to 104 °C.
As for `CCOC(=O)c1c(CBr)oc2ccccc12`, the figure is 84 to 86 °C.
`Clc1cccc(-c2noc(Cl)n2)c1` yielded a melting point of 44 to 46 °C.
`CC(C)(C)c1ccc(SCC(=O)O)cc1` returned a melting point of 65 to 67 °C.
For the molecule `O=C(O)CSc1ccc2c(c1)CCC2`, the melting point was in the range of 64 to 66 °C.
`O=C(O)c1ccc(S(=O)(=O)Nc2ccncc2)cc1` gave a melting point of 297 to 299 °C.
For the molecule `Cc1cc(-n2c(C)cc(C=O)c2C)no1`, the melting point lay in the range of 75 to 77 °C.
As for `Cc1nc2c(C(N)=O)cnn2c(C)c1CCC(=O)O`, the figure is 282 to 284 °C; as for `O=c1[nH]c2ccc(I)cc2o1`, 209 to 211 °C; as for `Cc1nnc(S)n1C`, 112 to 115 °C.
As for `CNC(=O)c1cc(Oc2ccccc2N)ccn1`, the figure is 115 to 117 °C; as for `Nc1cccc(NC(=O)c2cccnc2)c1`, 155 to 157 °C; as for `O=[N+]([O-])c1c[nH]ccc1=NCC1CCCO1` (stereo unspecified), 72 to 74 °C.
Take `CC(C)(C)c1cc(N)n(C(C)(C)C)n1`: the melting point was in the range of 69 to 71 °C.
`CC1(O)CCc2ccccc2C1` (stereo unspecified): the melting point was in the range of 39 to 41 °C.
In turn, `CC(N)c1ccc(NC(=O)c2ccncc2)cc1` (stereo unspecified) gave a melting point of 159 to 161 °C.
In turn, `OC(CNCc1ccccc1)c1ccco1` (stereo unspecified) returned a melting point of 68 to 70 °C.
As for `COc1ccccc1C(C)=CC(=O)O`, the melting point fell in the range of 81 to 83 °C.
The molecule `O=C(O)CNC(=O)c1cccc(F)c1` gave a melting point of 153 to 155 °C.
The result for `CC1C(=O)NCCN1C(=O)c1ccccc1` (stereo unspecified) reads 146 to 148 °C; that for `O=C(Cn1c(Cl)nc2ccccc21)c1ccccc1`, 168 to 170 °C; that for `O=C(O)C1CCN(C(=O)C2(c3ccccc3)CCC2)CC1`, 146 to 148 °C.
Molecule `Cc1c(C(=O)O)sc2nccn12` displayed a melting point of 241 to 243 °C.
Turning to `NCC(O)c1ccc(Cl)c(F)c1` (stereo unspecified), the melting point was in the range of 54 to 56 °C.
Molecule `O=C(O)c1cccn1-c1ccc(I)cc1` displayed a melting point of 199 to 201 °C.
For the molecule `CSCCC1NC(=O)NC1=O` (stereo unspecified), the melting point was in the range of 108 to 110 °C.
On to `COc1ccc(C(=O)c2ccccc2C(=O)O)cc1F`, for which the melting point lay in the range of 147 to 149 °C.
The result for `O=C(O)C(=O)Cc1cccs1` reads 163 to 165 °C.
`CC1CC(C(=O)O)CCO1` (stereo unspecified): the melting point is 44 to 46 °C.
As to `Cc1c(N2CCOC2=O)cccc1[N+](=O)[O-]`, the melting point is 67 to 69 °C.
On to `O=c1[nH]c(CCl)nc2cc(-c3ccc(Cl)cc3)sc12`, for which the melting point was 217 to 219 °C.
`COc1ccc2c(=O)[nH]cnc2c1` came in with a melting point of 251 to 253 °C.
In turn, `Nc1nncc(-c2cccc(Cl)c2)n1` had a melting point of 219 to 221 °C.
As for `CCOC(=O)C1=C(C)NC(C)=C(C(=O)O)C1c1cccc([N+](=O)[O-])c1` (stereo unspecified), the figure is 199 to 201 °C; as for `COc1cc(=O)[nH]c(NC(=O)CCl)n1`, 189 to 191 °C.
The result for `Cc1cc(C)nc(SCC(=O)O)n1` reads 130 to 132 °C; that for `CC(=O)c1ccc(NS(C)(=O)=O)cc1`, 155 to 157 °C; that for `O=C(NCC(F)(F)F)c1ccc(O)cc1`, 113 to 115 °C.
The molecule `CC(C)(C)OC(=O)NC(C)(C)C(C)(C)C(=O)O` yielded a melting point of 125 to 127 °C.
With `COc1ccccc1S(=O)(=O)Cl`, the melting point lay in the range of 115 to 119 °C.
For the molecule `Nc1cccc(-n2ccnn2)c1`, the melting point was 118 to 120 °C.
On to `COc1ccc(C=C2CCCc3c2nc2ccccc2c3C(=O)O)cc1`, for which the melting point is 157 to 159 °C.
As to `CC(Cl)C(=O)NCc1ccccc1Cl` (stereo unspecified), the melting point is 88 to 90 °C.
`CC(C)C1(C)CC(=O)NC1=O` (stereo unspecified) showed a melting point of 78 to 80 °C.
`Cc1ccc(NC(N)=O)c(C)c1` yielded a melting point of 215 to 217 °C.
For `C=CS(=O)(=O)c1ccc(C(C)(C)C)cc1`, the melting point lay within 91 to 93 °C.
As for `O=C1CC2(Cc3ccccc3C2)C(=O)O1`, the melting point lay in the range of 164 to 166 °C.
Molecule `CSc1ccsc1C(=O)O` yielded a melting point of 194 to 196 °C.
As for `Nc1nnc(-c2cc(F)cc(Br)c2)s1`, the figure is 192 to 194 °C; as for `CS(=O)(=O)c1ccccc1NN`, 75 to 77 °C; as for `Cc1oc(-c2ccco2)nc1CCl`, 58 to 60 °C.
`O=C1Nc2cc(F)c([N+](=O)[O-])cc2C1=O`: the melting point fell in the range of 236 to 238 °C.
Take `Oc1cccc(Oc2ncccn2)c1`: the melting point is 192 to 194 °C.
For the molecule `ON=Cc1ccc(N2CCOCC2)cc1`, the melting point was in the range of 186 to 188 °C.
Regarding `O=[N+]([O-])c1cc(Br)ccc1I`, the melting point was in the range of 84 to 86 °C.
`Cn1c(=O)[nH]c2cc(C(=O)O)ccc21` had a melting point of 391 to 393 °C.
Take `Nc1ccc(CN2CCC(CO)CC2)cc1`: the melting point lay in the range of 165 to 167 °C.
In turn, `OC(CC1CCCCCN1)c1cccs1` (stereo unspecified) returned a melting point of 60 to 62 °C.
Turning to `NCc1nncn1-c1ccccc1`, the melting point was 59 to 61 °C.
As to `CCOC(=O)/C(C#N)=C/Nc1cc(OC)cc(OC)c1`, the melting point lay in the range of 140 to 142 °C.
In turn, `O=C(O)CNC(=O)Nc1ccc(Br)cc1` displayed a melting point of 192 to 194 °C.
In turn, `O=C(CN1CCNCC1)N1CCCc2ccccc21` gave a melting point of 64 to 66 °C.
The result for `Nc1nnc(-c2cccs2)[nH]1` reads 202 to 204 °C; that for `Cc1cc(C)c2c(N)c(C(=O)O)sc2n1`, 145 to 147 °C.
Turning to `CCc1[nH]n(C)c(=N)c1-c1ccc2c(c1)OCO2`, the melting point lay in the range of 154 to 156 °C.
The result for `O=S(=O)(Nc1nc2ccccc2nc1Cl)c1ccccc1` reads 172 to 174 °C; that for `O=C(O)c1cccc2c3c([nH]c12)CCCCC3`, 225 to 227 °C; that for `NS(=O)(=O)CC(=O)O`, 119 to 121 °C.
Turning to `CCOc1ccc(N)cc1CN1CCCC1`, the melting point was 58 to 60 °C.
For the molecule `CSc1nccn1-c1ccc(C(=O)O)cc1`, the melting point lay in the range of 296 to 298 °C.
In the case of `N#CC1(N2CCCC2)CCNCC1`, the melting point lay in the range of 61 to 63 °C.
For the molecule `CC(C)(O)c1nc2ccccc2s1`, the melting point lay within 89 to 91 °C.
The molecule `Cc1ccc(OCCC(=O)O)cc1C` returned a melting point of 155 to 157 °C.
Molecule `O=C(O)c1cccc(CS(=O)(=O)c2ccccc2)c1` showed a melting point of 194 to 196 °C.
As for `CC(C)(C)NC(=O)c1cccc(N)c1`, the figure is 124 to 126 °C; as for `CN(C)S(=O)(=O)c1ccc(F)c(C(=O)O)c1`, 163 to 165 °C; as for `Sc1nc2ccccc2n1-c1ccccc1`, 140 to 145 °C.
`CC(O)c1nc2ccccc2s1` (stereo unspecified) came in with a melting point of 61 to 63 °C.
Take `O=C(O)Cc1ccc([N+](=O)[O-])cc1Cl`: the melting point was in the range of 157 to 159 °C.
Consider `COc1ccc(NS(=O)(=O)c2cc(C(=O)O)ccc2C)cc1`, for which the melting point lay in the range of 71 to 73 °C.
Molecule `Nc1cc(-n2nnnc2C2CC2)ccc1F` showed a melting point of 112 to 114 °C.
Turning to `NS(=O)(=O)c1ccc(S(=O)(=O)N2CCC(C(=O)O)CC2)cc1`, the melting point lay in the range of 190 to 192 °C.
As to `O=c1[nH]cnc2cc(F)c(F)cc12`, the melting point fell in the range of 264 to 266 °C.
As to `CC(=O)Nc1ccc(C)c(S(=O)(=O)Cl)c1`, the melting point lay in the range of 95 to 97 °C.
With `O=C(O)c1cccc(S(=O)(=O)Cc2ccccc2)c1`, the melting point was in the range of 214 to 216 °C.
Regarding `CC(C)(C)C1CCc2sc(-c3nnc(CCl)o3)cc2C1` (stereo unspecified), the melting point fell in the range of 89 to 91 °C.
For `CC1=CC(=O)N(c2ccccc2F)C1=O`, the melting point is 83 to 85 °C.
Regarding `OCc1sc2ccccc2c1Cl`, the melting point is 90 to 92 °C.
Turning to `O=C1CN(CCOc2ccc(Br)cc2)CCN1`, the melting point was in the range of 111 to 113 °C.
As for `Cn1cc(C#N)cn1`, the melting point lay within 59 to 61 °C.
As for `O=c1[nH]cnc2ccc(Br)cc12`, the figure is 267 to 271 °C; as for `Cc1cc(C=O)c(C)n1CCN1CCOCC1`, 79 to 81 °C.
On to `O=C(c1cccc([N+](=O)[O-])c1)C(F)(F)F`, for which the melting point fell in the range of 53 to 55 °C.
Take `ON=Cc1c(Cl)nc2ccccn12`: the melting point was 209 to 211 °C.
As for `Cc1ccc(NS(=O)(=O)c2cc(C(=O)O)ccc2C)cc1`, the melting point lay in the range of 55 to 57 °C.
For the molecule `COc1c(C(=O)O)sc(C)c1Br`, the melting point lay within 165 to 167 °C.
In turn, `Nc1c(Cl)ncnc1N1CCCC1` showed a melting point of 103 to 105 °C.
As for `CCCOc1ccc(-c2nc(C(=O)O)cs2)cc1`, the melting point lay in the range of 183 to 185 °C.
Turning to `Nc1nc(Cc2ccccc2Br)cs1`, the melting point fell in the range of 115 to 117 °C.
As for `COc1ccc(C(=O)CC(C)=O)cc1`, the melting point was in the range of 52 to 54 °C.
Consider `NC(=O)c1ccccc1N1CCC(N)C1` (stereo unspecified), for which the melting point was 138 to 140 °C.
In the case of `Cn1c(C(=O)O)c(Cl)c2ccccc21`, the melting point fell in the range of 233 to 235 °C.
`NC1CCC(c2nc(-c3ccccc3)n[nH]2)CC1` (stereo unspecified) displayed a melting point of 163 to 165 °C.
As for `NC(=S)c1cccc(S(=O)(=O)NC2CCCCCCC2)c1`, the melting point is 124 to 126 °C.
As for `CNc1ccccc1C(=O)NCCc1ccc(OC)cc1`, the melting point lay within 96 to 98 °C.
As for `CNc1ccccc1S(C)(=O)=O`, the figure is 96 to 98 °C; as for `COc1ccc([N+](=O)[O-])c2cccnc12`, 145 to 147 °C; as for `CCOC(=O)C(=O)CC(=O)c1ccc(Cl)cc1`, 62 to 64 °C.
As for `OCc1cc(Cl)c2nccn2c1`, the melting point was 169 to 171 °C.
Molecule `O=c1[nH]c(CCl)nc2sc3c(c12)CCCC3` showed a melting point of 265 to 267 °C.
Regarding `O=C(O)c1ccc(F)c(S(=O)(=O)Cc2ncon2)c1`, the melting point was in the range of 169 to 171 °C.
The result for `NS(=O)(=O)Cc1ccc(Cl)cc1Br` reads 169 to 171 °C.
Turning to `O=C(O)C(Cc1ccccc1)N1C(=O)C=CC1=O` (stereo unspecified), the melting point fell in the range of 193 to 195 °C.
